Values of other authors as cited in patent publication US12532880B2, “Cryopreservation of cell monolayers” (priority 2018, dated 2026).

Columns and labels:
[1] = tested on: porcine corneal endothelium; details: endothelium cryopreserved in the presence of 2% CS
[2] = tested on: intact human articular cartilage; details: chondroitin sulfate added to the vitrification solution

## chondroitin sulfate [CS]
[1]
  Loss of viability in post-thaw culture: 33%
[2]
  Cell recovery: 75.4%
